Values joined by “and” are separate entries in the source; they are usually repeats but may differ in a detail not shown here. Equal entries are not always repeated.
Experiments:
[1] = test system: humanized PXR-CAR-CYP3A4/3A7 mice, liver; experiment: UHPSFC/MS liver lipidomics (HFD study); assay type: in vivo, mouse
Procedure: Solvents, additives, lipid class internal standards, liver sample preparation, and UHPSFC/MS measurement are described in detail in Supplementary, Chapter 19. Lipid separation using UHPSFC (Acquity UPC^2 instrument from Waters; Milford, MA, USA) was performed on column Viridis BEH (100 × 3 mm, 1.7 µm) with the following conditions: the column temperature 60 °C, the flow rate 1.9 mL/min, and the injection volume 1 µL. The following linear gradient was performed using scCO2 and methanol (30 mM ammonium acetate + 1% of water) used as a modifier: 0 min – 1% modifier, 1.5 min – 16% modifier, 4 min – 51% modifier, 7 min – 51% modifier, 7.51 min – 1% modifier, and the equilibration with the total run time of 8 min. The automatic back-pressure regulator (ABPR) was set to 1800 psi and the autosampler temperature to 4 °C. Methanol with 30 mM ammonium acetate and 1% of water was used as the make-up solvent with a flow rate of 0.25 mL/min. The SFC was connected with the hybrid quadrupole - time of flight (QTOF) mass spectrometer Synapt G2-Si (Waters; Milford, MA, USA) with following conditions: sensitivity mode applying positive ESI mode, the mass range of m/z 150–1200, the capillary voltage of 3 kV, the sampling cone of 20 V, the source offset of 90 V, the source temperature of 150 °C, the desolvation temperature of 500 °C, the cone gas flow of 50 L/h, the desolvation gas flow of 1000 L/h, and the nebulizer gas flow of 4 bar. Mass spectra were acquired in the continuum mode with a scan time of 0.5 s and the peptide leucine enkephalin as the lock mass.
All UHPSFC/MS-QTOF spectra were acquired using MassLynx and processed as follows: noise reduction using the Compression tool followed by the lock mass correction and the conversion from continuum to centroid mode using the MassLynx tool (Accurate mass measure). […] Data were further analyzed using lipidr package. PCA and log2 fold change values were calculated using log2 transformed and Pareto scaled data. […]

PXR/MED1 = biological target: T1, PXR/MED1 (Homo sapiens, UniProt O75469); experiment: Mammalian two-hybrid PXR/coactivator MED1 recruitment, HepG2; assay type: cell-based; set-up: key: firefly/Metridia luciferase activity ratio (normalized)
T1 construct: PXR-LBD (residues 108–434); expressed in transfected cells; host or cells: HepG2
Procedure: The GAL4-dependent pGL4-G5, harboring a pentamer of GAL4 binding sites in front of the E1b promoter was described before.
Transient batch transfection of HepG2 cells was done as described above. […] All transfections included 0.01 µg pMetLuc2control per well for normalization of firefly luciferase reporter activities. After overnight incubation with the transfection mixtures, cells were treated with chemicals in a volume of 100 µl of cell culture medium. […] Firefly luciferase activity was measured in 10 µl of cell lysates, and Metridia luciferase activity was analyzed in 10 µl of medium supernatant, both as described before. Results were normalized by dividing firefly luciferase activity by Metridia luciferase activity measured from the same well. Measurements of samples were repeated several times (n ≥ 3).

[2] = Chemical stability (shelf, DMSO stock) and solubility in solvents; assay type: physicochemical
From the text: 1. Biological half-life was investigated. But is MI-883 stable on the shelf? […]
Our medicinal chemistry team analyzed the MI-883 sample that had been stored on the lab bench at […]
compared to the freshly prepared sample (see Figure R1).
In addition, the compound is stable for at least two years in dimethyl sulfoxide (DMSO) as we confirm using published protocols 1,2(see data in Table R1).
Table 1: LC/MS data for MI-883 stability in DMSO solution
Study protocol: Stability of MI-883 stock solution in DMSO after two years at -20°C A 10 mM solution of MI-883 was prepared in DMSO and divided into multiple aliquots in 2 mL cryovials.
The samples were stored at -20°C for two years in a standard laboratory freezer. Mass spectrometric analysis was conducted using LC/MS (Sciex QTRAP 7500). Stability was determined based on three independently prepared 1 µM solutions from stored stock.
DMSO stock solution at -20°C over two years. However, for critical pharmaceutical use, additional studies at different temperatures and under varied conditions (e.g., light exposure, humidity) may be necessary to fully assess long-term stability. […]
We used several computational prediction tools to determine water […]
μg/mL (0.9 μM) and 0.2 μg/mL (0.4 μM). Using QikProp tool (Schrödinger software package), the […]
According to the ADMET Predictor software package […]
predictions align with our observations and confirm the poor water solubility of MI-883, although we […]
The compound is well soluble in methanol and can dissolve in ethanol up to a concentration of 30 mM. […]

[3] = test system: primary human hepatocytes (PHH); experiment: RT-qPCR mRNA expression in 2D primary human hepatocytes; details: for CYP2B6 mRNA, RT-qPCR, PHH (Fig. 1g), replicates: ctrl = 1
From the text: The cells were cultivated as 2D monolayers according to the manufacturer’s protocol.
RT-qPCR was used to examine gene expression in 2D and 3D PHH, HepaRG cells, or in mouse liver or intestine (ileum) samples as we have described before[60]–[62].

[4] = MI-883 1 μM, 24 h, one value per donor
[5] = single agent 5 μM: MI-883, CITCO (5 μM) alone

T1 sequence (O75469 108-434): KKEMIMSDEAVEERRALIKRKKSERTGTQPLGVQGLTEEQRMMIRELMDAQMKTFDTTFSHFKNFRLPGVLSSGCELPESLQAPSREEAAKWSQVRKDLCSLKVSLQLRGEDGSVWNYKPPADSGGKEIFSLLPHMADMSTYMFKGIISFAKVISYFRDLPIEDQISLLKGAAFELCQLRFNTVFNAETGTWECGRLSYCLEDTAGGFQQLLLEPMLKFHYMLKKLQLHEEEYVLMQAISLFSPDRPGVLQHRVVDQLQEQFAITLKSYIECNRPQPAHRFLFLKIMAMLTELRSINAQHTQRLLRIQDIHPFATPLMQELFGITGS

NC(=O)c1cc(Cn2cc(-c3c(-c4ccc(Cl)cc4)nc4cc(F)ccn34)nn2)ccc1Cl [MI-883, 2-chloro-5-((4-(2-(4-chlorophenyl)-7-fluoroimidazo[1,2-a]pyridin-3-yl)-1H-1,2,3-triazol-1-yl)methyl)benzamide]
cholesteryl esters (CE) in livers, UHPSFC/MS lipidomics [1]: not significantly altered
total and some individual lysophosphatidylcholine (LPC) levels in liver [1]: statistically significant decrease
liver triglycerides with long and highly unsaturated fatty acids (TG 60:12, TG 60:13) ([1]; male mice): significant increase
PXR/DRIP2025 (MED1) two-hybrid activity, replicates (PXR/MED1; MI-883 30 μM): 0.42 and 0.46 and 0.18 and 0.3 and 0.2
PXR/DRIP2025 (MED1) two-hybrid activity, replicates (PXR/MED1; single agent: RIF (10 µM), MI-883 10 μM): 0.33 and 0.2 and 0.19 and 0.27 and 0.23
solubility in methanol [2]: well soluble
LC/MS concentration of 1 µM solution from DMSO stock ([2]; 2 year at -20°C in DMSO): 1.007 µM
decomposition on the lab bench at room temperature ([2]; 6 months, HPLC/MS): no significant decomposition
water solubility ([2]; not experimentally determined): low water solubility
LC/MS concentration of 1 µM solution from DMSO stock ([2]; time 0): 1.012 µM
CYP2B6 mRNA, RT-qPCR, PHH (Fig. 1g), replicates ([3]; 1 mM): 6.40 and 7.90 and 6.20
CYP2B6 mRNA, RT-qPCR, PHH (Fig. 1g), replicates ([3]; 5mM): 11.50 and 14.10 and 10.70
CYP2B6 mRNA in PHH 2 donors (Fig. 3c) ([3]; MI-883 1 μM + CITCO (5 μM)): 18.7857 and 11.1982
CYP3A4 mRNA in PHH 2 donors (Fig. 3c) ([3]; MI-883 1 μM + CITCO (5 μM)): 1.145 and 0.8997
CYP2B6 mRNA in PHH 2 donors (Fig. 3c) ([3]; MI-883 1 μM + Rif (10 μM)): 16.0019 and 18.4588
CYP2B6 mRNA in PHH 2 donors (Fig. 3c) [3, 4]: 9.7833 and 10.0129
CYP3A4 mRNA in PHH 2 donors (Fig. 3c) [3, 4]: 1.152 and 1.035
CYP2B6 mRNA in PHH 2 donors (Fig. 3c) ([3]; MI-883 5 μM + CITCO (5 μM)): 4.985 and 8.159
CYP2B6 mRNA in PHH 2 donors (Fig. 3c) ([3]; MI-883 5 μM + Rif (10 μM)): 9.78 and 14.5843
CYP2B6 mRNA in PHH 2 donors (Fig. 3c) ([3]; MI-883 10 μM + CITCO (5 μM)): 1.856 and 2.089
CYP3A4 mRNA in PHH 2 donors (Fig. 3c) ([3]; MI-883 10 μM + CITCO (5 μM)): 0.35 and 0.4582
CYP2B6 mRNA in PHH 2 donors (Fig. 3c) ([3]; MI-883 10 μM + Rif (10 μM)): 2.674 and 5.134
CYP3A4 mRNA in PHH 2 donors (Fig. 3c) ([3]; MI-883 10 μM + Rif (10 μM)): 2.14 and 3.421
CYP2B6 mRNA in PHH 2 donors (Fig. 3c) [3, 5]: 17.2158 and 12.1241
CYP3A4 mRNA in PHH 2 donors (Fig. 3c) [3, 5]: 0.6604 and 0.7133
CYP3A4 mRNA in PHH 2 donors (Fig. 3c) ([3]; single agent 10 μM: MI-883, Rif (10 μM) alone): 0.3215 and 0.4561
